Laboratory results: patent US7060824B2, “Pyrrolotriazolopyrimidinone derivatives” (Almirall Prodesfarma, S.A., priority 2000, dated 2006)

Target: T1, cyclic GMP specific phosphodiesterase (PDE 5) (Homo sapiens, UniProt O76074)
T1 construct: was isolated from human platelet lysates by ion exchange chromatography using a Mono-Q column; from tissue; host or cells: human platelets (lysate, Mono-Q ion exchange fraction)
Assay: PDE 5 inhibition, enzyme isolated from human platelet lysates, [3H]-cyclic GMP substrate
Assay type: biochemical
Details: enzyme from human platelet lysates (Mono-Q); 0.25 mM [3H]-cyclic GMP as substrate; read-out: IC50 PDE5
Protocol: The cyclic GMP specific phosphodiesterase (PEE 5) was isolated from human platelet lysates by ion exchange chromatography using a Mono-Q column. The enzyme activity was determined using 0.25 mM [3H]-cyclic GMP as substrate. The purification of the enzyme and the assessment of the PDE 5 inhibitory activity of our compounds were performed essentially as described by Gristwood et al., Br. J. Pharmacol. 1992, 105, 985–991.

Row | SMILES | IC50
1 | CCCn1c(=O)n2cnnc2c2[nH]c(-c3cc(S(=O)(=O)N4CCCN(C)CC4)ccc3OCC)c(Cl)c21 [Example 11, 7-Chloro-8-[2-ethoxy-5-(4-methyl-[1,4]diazepane-1-sulfonyl)phenyl]-6-propyl-6,9-dihydro-5H-pyrrolo[2,3-e][1,2,4]triazolo[4,3-c]pyrimidine-5-one] | 0.099 nM
2 | CCCn1c(=O)n2cnnc2c2[nH]c(-c3cc(S(=O)(=O)N4CCN(CCOCC)CC4)ccc3OCC)c(Cl)c21 [Example 24, 7-Chloro-8-{2-ethoxy-5-[4-(2-ethoxyethyl)piperazine-1-sulfonyl]phenyl}-6-propyl-6,9-dihydro-5H-pyrrolo[2,3-e][1,2,4]triazolo[4,3-c]pyrimidine-5-one] | 0.042 nM
3 | CCCOc1ccc(S(=O)(=O)N2CCN(CCCO)CC2)cc1-c1[nH]c2c(c1Cl)n(CCC)c(=O)n1cnnc21 [Example 34, 7-Chloro-8-{5-[4-(3-hydroxypropyl)piperazine-1-sulfonyl)-2-propoxyphenyl]-6-propyl-6,9-dihydro-5H-pyrrolo[2,3-e][1,2,4]triazolo[4,3-c]pyrimidine-5-one] | 0.22 nM
4 | CCCOc1ccc(S(=O)(=O)NC2CC(C)(C)NC(C)(C)C2)cc1-c1[nH]c2c(c1Cl)n(CCC)c(=O)n1cnnc21 [Example 41, 3-(7-Chloro-5-oxo-6-propyl-6,9-dihydro-5H-pyrrolo[2,3-e][1,2,4]triazolo[4,3-c]pyrimidin-8-yl)-4-propoxy-N-(2,2,6,6-tetramethylpiperidin-4-yl)benzenesulfonamide] | 0.17 nM
5 | C=CCN1CCN(S(=O)(=O)c2ccc(OCCC)c(-c3[nH]c4c(c3Cl)n(CCC)c(=O)n3cnnc43)c2)CC1 [Example 45, 8-[5-(4-Allylpiperazine-1-sulfonyl)-2-propoxyphenyl]-7-chloro-6-propyl-6,9-dihydro-5H-pyrrolo[2,3-e][1,2,4]triazolo[4,3-c]pyrimidine-5-one] | 0.21 nM
6 | CCCOc1ccc(S(=O)(=O)NCCO)cc1-c1[nH]c2c(c1Cl)n(CCC)c(=O)n1cnnc21 [Example 50, 3-(7-Chloro-5-oxo-6-propyl-6,9-dihydro-5H-pyrrolo[2,3-e][1,2,4]triazolo[4,3-c]pyrimidin-8-yl)-N-(2-hydroxyethyl)-4-propoxybenzenesulfonamide] | 0.15 nM
7 | CCCOc1ccc(S(=O)(=O)N2CCN(C)CC2)cc1-c1[nH]c2c(c1Br)n(CCC)c(=O)n1cnnc21 [Example 58, 7-Bromo-8-[5-(4-methylpiperazine-1-sulfonyl)-2-propoxyphenyl]-6-propyl-6,9-dihydro-5H-pyrrolo[2,3-e][1,2,4]triazolo[4,3-c]pyrimidine-5-one] | 0.3 nM
8 | CCCOc1ccc(S(=O)(=O)N2CCCN(CCO)CC2)cc1-c1[nH]c2c(c1Br)n(CCC)c(=O)n1cnnc21 [Example 71, 7-Bromo-8-(5-[4-(2-Hydroxyethyl)-[1,4]diazepane-1-sulfonyl]-2-propoxyphenyl}-6-propyl-6,9-dihydro-5H-pyrrolo[2,3-e][1,2,4]triazolo[4,3-c]pyrimidine-5-one] | 0.12 nM
9 | CCCOc1ccc(S(=O)(=O)N2CCN(CCO)CC2)cc1-c1[nH]c2c(c1Br)n(CCC)c(=O)n1cnnc21 [Example 73, 7-Bromo-8-{5-[4-(2-hydroxyethyl)piperazine-1-sulfonyl]-2-propoxyphenyl}-6-propyl-6,9-dihydro-5H-pyrrolo[2,3-e][1,2,4]triazolo[4,3-c]pyrimidine-5-one] | 0.33 nM
10 | CCCOc1ccc(S(=O)(=O)N2CCNCC2)cc1-c1[nH]c2c(c1Br)n(CCC)c(=O)n1cnnc21 [Example 74, 7-Bromo-8-[5-(piperazine-1-sulfonyl)-2-propoxyphenyl]-6-propyl-6,9-dihydro-5H-pyrrolo[2,3-e][1,2,4]triazolo[4,3-c]pyrimidine-5-one] | 0.25 nM
11 | CCCn1c(=O)n2cnnc2c2[nH]c(-c3cc(S(=O)(=O)N4CCN5CCC[C@H]5C4)ccc3OCC)c(Cl)c21 [Example 75, 7-Chloro-8-[2-ethoxy-5-((S)-hexahydropyrrolo[1,2-a]pyrazine-2-sulfonyl)phenyl]-6-propyl-6,9-dihydro-5H-pyrrolo[2,3-e][1,2,4]triazolo[4,3-c]pyrimidine-5-one] | 0.19 nM
12 | CCCn1c(=O)n2cnnc2c2[nH]c(-c3cc(S(=O)(=O)N4C[C@@H]5C[C@H]4CN5C)ccc3OCC)c(Cl)c21 [Example 79, 7-Chloro-8-[2-ethoxy-5-((1S, 4S)-5-methyl-2,5-diazabicyclo[2.2.1]heptane-2-sulfonyl)phenyl]-6-propyl-6,9-dihydro-5H-pyrrolo[2,3-e][1,2,4]triazolo[4,3-c]pyrimidine-5-one] | 0.19 nM
